Assay [1] deals with T1, human glucocorticoid receptor-α [GRX] isoform (Homo sapiens, UniProt P04150).
T1 construct: host or cells: insect SF21 cells (baculovirus)
T1 sequence (P04150 1-777): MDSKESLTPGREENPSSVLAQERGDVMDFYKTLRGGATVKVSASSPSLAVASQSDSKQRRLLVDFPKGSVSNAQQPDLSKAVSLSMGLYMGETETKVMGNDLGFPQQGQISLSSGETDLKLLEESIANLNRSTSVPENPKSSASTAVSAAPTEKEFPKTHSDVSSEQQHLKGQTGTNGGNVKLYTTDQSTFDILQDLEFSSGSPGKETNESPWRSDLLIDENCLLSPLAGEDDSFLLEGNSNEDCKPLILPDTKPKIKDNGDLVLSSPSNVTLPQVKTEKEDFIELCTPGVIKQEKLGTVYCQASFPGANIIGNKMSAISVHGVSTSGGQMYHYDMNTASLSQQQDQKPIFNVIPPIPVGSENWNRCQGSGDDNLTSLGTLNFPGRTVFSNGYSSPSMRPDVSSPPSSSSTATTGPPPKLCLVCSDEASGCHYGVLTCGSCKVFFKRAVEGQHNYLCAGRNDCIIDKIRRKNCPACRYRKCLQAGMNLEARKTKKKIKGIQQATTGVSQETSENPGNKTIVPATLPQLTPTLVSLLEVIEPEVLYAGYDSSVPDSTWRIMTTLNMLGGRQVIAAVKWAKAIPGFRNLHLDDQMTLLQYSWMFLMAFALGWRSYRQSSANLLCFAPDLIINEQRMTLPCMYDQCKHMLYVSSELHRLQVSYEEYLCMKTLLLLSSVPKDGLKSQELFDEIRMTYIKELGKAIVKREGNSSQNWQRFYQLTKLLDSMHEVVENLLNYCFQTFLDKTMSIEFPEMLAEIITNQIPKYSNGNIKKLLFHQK
Description: Radioligand binding with human glucocorticoid receptor cytosol ([3H]-dexamethasone competition).

The target of assay [2] is T2, human progesterone receptor-A [PRA] isoform (Homo sapiens, UniProt P06401).
T2 construct: host or cells: insect SF21 cells (baculovirus)
T2 sequence (P06401 1-769 isoform P06401-2): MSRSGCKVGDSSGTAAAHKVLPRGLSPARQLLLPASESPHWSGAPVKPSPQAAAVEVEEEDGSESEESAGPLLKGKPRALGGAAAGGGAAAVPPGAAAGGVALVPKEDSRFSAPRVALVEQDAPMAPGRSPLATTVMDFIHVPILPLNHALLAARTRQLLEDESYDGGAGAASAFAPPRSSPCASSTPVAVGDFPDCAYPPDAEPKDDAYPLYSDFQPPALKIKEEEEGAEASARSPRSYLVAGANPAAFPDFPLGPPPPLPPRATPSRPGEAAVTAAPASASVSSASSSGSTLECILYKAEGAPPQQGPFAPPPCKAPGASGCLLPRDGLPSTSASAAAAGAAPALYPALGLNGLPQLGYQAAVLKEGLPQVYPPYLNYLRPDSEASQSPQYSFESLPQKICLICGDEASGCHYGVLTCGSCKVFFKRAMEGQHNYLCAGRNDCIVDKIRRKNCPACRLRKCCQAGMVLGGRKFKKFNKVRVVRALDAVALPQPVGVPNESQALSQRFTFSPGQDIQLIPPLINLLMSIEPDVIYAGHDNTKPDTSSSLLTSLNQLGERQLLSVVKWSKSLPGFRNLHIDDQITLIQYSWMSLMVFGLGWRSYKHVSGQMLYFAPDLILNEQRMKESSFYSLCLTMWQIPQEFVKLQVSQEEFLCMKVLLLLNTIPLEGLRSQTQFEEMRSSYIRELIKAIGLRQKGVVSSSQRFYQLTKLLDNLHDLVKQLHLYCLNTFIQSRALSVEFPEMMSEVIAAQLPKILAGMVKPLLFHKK
Description: Radioligand binding with human progesterone receptor cytosol ([3H]-progesterone competition).
Description: Both receptor cDNAs were cloned into baculovirus expression vectors and expressed in insect SF21 cells.
Stock solutions (32 mM) of compounds were prepared in dimethylsulfoxide (DMSO), and 50× solutions of test compounds were prepared from the 32 mM solution with a 50:50 mixture of DMSO/ethanol. The 50× solution was then diluted with binding buffer that contained 10 mM Tri-HCl, 1.5 mM EDTA, 10% glycerol, 1 mM DTT, 20 mM sodium molybdate, pH 7.5 @4° C. 1% DMSO/ethanol was present in the binding assay.
For PR binding assays, [^3H]Prog (˜36,000 dpm (˜0.8 nM)), PRA cytosol (˜40 μg protein), test compounds and binding buffer were mixed in a total volume of 200 μL and incubated at 4° C at overnight in a plate shaker. Specific binding was defined as the difference between binding of [^3H]Prog in the absence and in the presence of 3 μM unlabelled Prog.
After an overnight incubation, 50 μL of hydroxyapatite (25% weight/volume) slurry were added to each well and plates were incubated for 10 min at 0° C. in a plate shaker. Plates were suctioned with a Millipore vacuum manifold and each well was rinsed with 300 μL of ice-cold binding buffer. A 250 μL aliquot of Packard Microscint-20 was added to each well and the wells were shaken at room temperature for 20 minutes. The amount of radioactivity was determined with a Packard TopCount plate reader.
The Ki of test compounds was determined using the Cheng-Prusoff equation Ki=IC50/(1+[L*]/[KL]) where L* is the concentration of radioligand and KL is the dissociation constant of the radioligand determined from saturation analysis.

[3] abbreviates: GRX cytosol expressed in insect SF21 cells, [3H]-Dex ~0.9 nM, 4° C. overnight, Ki by Cheng-Prusoff, KL ~[…], read-out: Ki (nM) GR.
Setting [4] is: PRA cytosol expressed in insect SF21 cells, [3H]Prog ~0.8 nM, 4° C. overnight, Ki by Cheng-Prusoff, KL ~4.5 nM, read-out: Ki (nM) PR.

Structures are written as SMILES. Like-named read-outs stand apart in the source and are kept apart here. Where only a bound is given, the exact number is not on record here.

As usually defined, the Ki is the dissociation constant of the complex between target and ligand, obtained from inhibition or displacement. `C=CCOc1cccc2c1-c1ccc3c(c1C(c1ccccc1)O2)C(C)=CC(C)(C)N3` (stereo not shown) [Example 76, 2,5-Dihydro-2,2,4-trimethyl-5-phenyl-10-(2-prenyloxy)-1H-[1]benzopyrano[3,4-f]quinoline]: the inhibition constant (Ki) was 152 nM in assay [1] (setting [3]) and no less than 10000 nM in assay [2] (setting [4]).
Turning to `COc1ccc(C2Oc3cccc(OC)c3-c3ccc4c(c32)C(C)=CC(C)(C)N4)s1` (stereo not shown) [Example 40, 2,5-Dihydro-10-methoxy-2,2,4-trimethyl-5-(5-methoxy-2-thienyl)1H-[1]benzopyrano[3,4-f]quinoline], the inhibition constant (Ki) is 18 nM in assay [1] (setting [3]) and 18100 nM in assay [2] (setting [4]).
With `COc1c(O)ccc2c1-c1ccc3c(c1C(C1C=CCCC1)O2)C(C)=CC(C)(C)N3` (single isomer, unassigned; (+)) [Example 284], the inhibition constant (Ki) stood at 110 nM in assay [1] (setting [3]) and 2100 nM in assay [2] (setting [4]).
In the same order, the values of `COc1cccc2c1-c1ccc3c(c1C(c1cc(C)cc(N4CCOCC4)c1)O2)C(C)=CC(C)(C)N3` (stereo not shown) [Example 17, 2,5-Dihydro-10-methoxy-2,2,4-trimethyl-5-[3-methyl-5-(1-morpholinyl)phenyl]-1H-[1]benzopyrano[3,4-f]quinoline] are 39 nM and no less than 10000 nM.
Consider `CCOc1cccc2c1-c1ccc3c(c1C(c1cc(Cl)cc(Cl)c1)O2)C(C)=CC(C)(C)N3` (stereo not shown) [Example 79, 5-(3,5-Dichlorophenyl)-10-ethoxy-2,5-dihydro-2,2,4-trimethyl-1H-[1]benzopyrano[3,4-f]quinoline], for which the Ki is 19.2 nM in assay [1] (setting [3]) and no less than 10000 nM in assay [2] (setting [4]).
`COc1cccc2c1-c1ccc3c(c1C(c1ccc(F)cc1)O2)C(C)=CC(C)(C)N3` (stereo not shown) [Example 30, 5-(4-Fluorophenyl)-2,5-dihydro-10-methoxy-2,2,4-trimethyl-1H-[1]benzopyrano[3,4-f]quinoline]: the figures for the Ki in assay [1] (setting [3]) and in assay [2] (setting [4]) were 13 nM and 7920 nM, respectively.
The corresponding values for `CC1=CC(C)(C)Nc2ccc3c(c21)C(c1ccccc1)Oc1cccc(OC(F)(F)Br)c1-3` (stereo not shown) [Example 346, 10-(Bromodifluoromethoxy)-2,5-dihydro-5-phenyl-2,2,4-trimethyl-1H-[1]benzopyrano[3,4-f]quinoline] are 44 nM and 5110 nM.
Turning to `COc1cccc2c1-c1ccc3c(c1C([C@@H]1C=C(COC(C)=O)CCC1)O2)C(C)=CC(C)(C)N3` (stereo in doubt) [Example 162], the Ki is 6.5 nM in assay [1] (setting [3]) and no less than 10000 nM in assay [2] (setting [4]).
In the same order, the values of `C=C(C)CC1Oc2ccc(O)c(OC)c2-c2ccc3c(c21)C(C)=CC(C)(C)N3` (stereo not shown) [Example 289, 2,5-Dihydro-9-hydroxy-10-methoxy-2,2,4-trimethyl-5-(2-methyl-3-propenyl)-1H-[1]benzopyrano[3,4-f]quinoline] are 0.73 nM and 260 nM.
Take `COc1cccc2c1-c1ccc3c(c1C(c1cccc(OC(=O)N4CCOCC4)c1)O2)C(C)=CC(C)(C)N3` (stereo not shown) [Example 100, [(2,5-Dihydro-10-methoxy-2,2,4-trimethyl-1H-[1]benzopyrano[3,4-f]quinolin-5-yl)phenyl]1-morpholinecarboxylate]: the Ki in assay [1] (setting [3]) is 7.8 nM; in assay [2] (setting [4]) it was no less than 10000 nM.
Consider `COc1cccc2c1-c1ccc3c(c1C(c1ccc(OC(=O)N(C)C)cc1)O2)C(C)=CC(C)(C)N3` (stereo not shown) [Example 97, [4-(2,5-Dihydro-10-methoxy-2,2,4-trimethyl-1H-1benzopyrano[3,4-f]quinolin-5-yl)phenyl]dimethylcarbamate], for which the figures for the Ki in assay [1] (Ki (nM) GR) and in assay [2] (Ki (nM) PR) were 320 nM and no less than 10000 nM, respectively.
Take `C=CCC1Oc2cc(F)cc(OC)c2-c2ccc3c(c21)C(C)=CC(C)(C)N3` (stereo not shown) [Example 233, 5-(3-Propenyl)-8-fluoro-10-methoxy-2,2,4-trimethyl-2,5-dihydro-1H-[1]benzopyrano[3,4-f]quinoline]: the figures for the inhibition constant Ki in assay [1] (setting [3]) and in assay [2] (setting [4]) were 2.5 nM and 350 nM, respectively.
With `C=C=C(C)C1Oc2cccc(OC)c2-c2ccc3c(c21)C(C)=CC(C)(C)N3` (stereo not shown) [Example 210, 2,5-Dihydro-10-methoxy-5-(-methylpropa-1,2-dienyl)-2,2,4-trimethyl-1H-[1]benzopyrano[3,4-f]quinoline], the Ki in assay [1] (read-out: Ki (nM) GR) amounted to 21 nM; in assay [2] (read-out: Ki (nM) PR), 710 nM.
On to `COc1cccc2c1-c1ccc3c(c1C(=Cc1ccccn1)O2)C(C)=CC(C)(C)N3` [Example 128, 2,5-Dihydro-10-methoxy-2,2,4-trimethyl-5-(2-pyridinylmethylene)-1H-[1]benzopyrano[3,4-f]quinoline], for which the inhibition constant (Ki) in assay [1] (setting [3]) is 5.9 nM; in assay [2] (setting [4]), no less than 10000 nM.
As to `COc1cccc2c1-c1ccc3c(c1C(c1cccc(OCSC)c1)O2)C(C)=CC(C)(C)N3` (stereo not shown) [Example 14, 2,5-Dihydro-10-methoxy-2,2,4-trimethyl-5-[[3-(methylthio)methoxy]phenyl]-1H-[1]benzopyrano[3,4-f]quinoline], the inhibitory constant (Ki) in assay [1] (setting [3]) was 5.2 nM; in assay [2] (setting [4]), no less than 10000 nM.
In the case of `C/C=C/CC1Oc2cccc(OC)c2-c2ccc3c(c21)C(C)=CC(C)(C)N3` (stereo not drawn) [Example 191, trans 2,5-Dihydro-10-methoxy-5-(2-butenyl)-2,2,4-trimethyl-1H-[1]benzopyrano[3,4-f]quinoline], the values for the Ki in assay [1] (setting [3]) and in assay [2] (setting [4]) were 2.9 nM and 1190 nM, respectively.
For `COc1cccc2c1-c1ccc3c(c1C(c1cc(C)cc(Br)c1)O2)C(C)=CC(C)(C)N3` (stereo not shown) [Example 11, 5-(3-Bromo-5-methylphenyl)-2,5-dihydro-10-methoxy-2,2,4-trimethyl-1H-[1]benzopyrano[3,4-f]quinoline], the Ki in assay [1] (setting [3]) was 4.4 nM; in assay [2] (setting [4]), 288 nM.
For the compound `C=CCC1Oc2ccc(OC(=O)CCC(=O)N3CCOCC3)c(OC)c2-c2ccc3c(c21)C(C)=CC(C)(C)N3` (stereo not shown) [Example 380, 2,5-Dihydro-9-(4-N-morpholino-4-oxo-butanoyloxy)-10-methoxy-2,2,4-trimethyl-5-(2-propenyl)-1H-[1]benzopyrano[3,4-f]quinoline], the results for the Ki in assay [1] (setting [3]) and in assay [2] (setting [4]) were 1.2 nM and 204 nM, respectively.
The corresponding values for `COc1cccc2c1-c1ccc3c(c1C(CC(=O)N(C)OC)O2)C(C)=CC(C)(C)N3` (stereo not shown) [Example 185, Methyl 2-(2,5-Dihydro-10-methoxy-2,2,4-trimethyl-1H-[1]benzopyrano[3,4-f]quinolin-5-yl)acetyl Hydroxamate] are 288 nM and no less than 10000 nM.
With `C=CC1(C2Oc3cccc(OC)c3-c3ccc4c(c32)C(C)=CC(C)(C)N4)CCCCC1` (stereo not shown) [Example 139, 2,5-Dihydro-10-methoxy-5-(1-ethenyl-1-cyclohexyl)-2,2,4-trimethyl-1H-[1]benzopyrano[3,4-f]quinoline], the Ki in assay [1] (setting [3]) is 235 nM; in assay [2] (setting [4]) it was 4800 nM.
In the same order, the values of `COc1cccc2c1-c1ccc3c(c1C(c1cc(C)cc(NC(=O)N(C)C)c1)O2)C(C)=CC(C)(C)N3` (stereo not shown) [Example 118, N′-[3-(2,5-Dihydro-10-methoxy-2,2,4-trimethyl-1H-1benzopyrano[3,4-f]quinolin-5-yl)-5-methylphenyl]-N,N-dimethylurea] are 43 nM and no less than 10000 nM.
Take `COc1c(O)ccc2c1-c1ccc3c(c1[C@H](C1(C)CC=CCC1)O2)C(C)=CC(C)(C)N3` (single isomer, unassigned; (-)) [Example 238]: the results for the inhibitory constant (Ki) in assay [1] (setting [3]) and in assay [2] (setting [4]) were 1.2 nM and 11.5 nM, respectively.
The corresponding values for `CCC1Oc2cccc(OC)c2-c2ccc3c(c21)C(C)=CC(C)(C)N3` (stereo not shown) [Example 60, 5-Ethyl-2,5-dihydro-10-methoxy-2,2,4-trimethyl-1H-[1]benzopyrano[3,4-f]quinoline] are 14 nM and 10500 nM.

For the origin of these results see patent US6506766B1 (Abbott Laboratories, priority 1998, dated 2003).
